Reference: ChEMBL document CHEMBL1132204, “Design and synthesis of phosphinamide-based hydroxamic acids as inhibitors of matrix metalloproteinases” (J Med Chem, 1999)

How the values were obtained:
Stromelysin-1 = Stromelysin-1 (Homo sapiens, UniProt P08254); test: Inhibition of human matrix metalloprotease-3
Interstitial collagenase = biological target: T1, Interstitial collagenase (Homo sapiens, UniProt P03956); test: Inhibition of human matrix metalloprotease 1
T1 sequence (P03956 whole entry): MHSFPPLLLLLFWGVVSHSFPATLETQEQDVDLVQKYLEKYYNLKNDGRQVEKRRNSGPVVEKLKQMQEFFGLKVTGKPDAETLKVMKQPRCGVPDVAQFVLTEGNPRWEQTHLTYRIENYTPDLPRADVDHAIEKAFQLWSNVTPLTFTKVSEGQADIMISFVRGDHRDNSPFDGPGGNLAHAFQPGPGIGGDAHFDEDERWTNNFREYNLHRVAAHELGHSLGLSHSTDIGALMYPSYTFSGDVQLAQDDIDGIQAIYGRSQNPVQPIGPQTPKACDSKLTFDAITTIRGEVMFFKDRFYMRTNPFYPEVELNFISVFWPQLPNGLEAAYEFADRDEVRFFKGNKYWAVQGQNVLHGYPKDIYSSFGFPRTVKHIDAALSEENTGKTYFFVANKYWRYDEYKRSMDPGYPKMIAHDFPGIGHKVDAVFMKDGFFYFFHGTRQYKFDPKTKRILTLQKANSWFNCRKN

Matrilysin = biological target: T2, Matrilysin (Homo sapiens, UniProt P09237); test: Inhibition of human matrix metalloprotease 7
T2 sequence (P09237 whole entry): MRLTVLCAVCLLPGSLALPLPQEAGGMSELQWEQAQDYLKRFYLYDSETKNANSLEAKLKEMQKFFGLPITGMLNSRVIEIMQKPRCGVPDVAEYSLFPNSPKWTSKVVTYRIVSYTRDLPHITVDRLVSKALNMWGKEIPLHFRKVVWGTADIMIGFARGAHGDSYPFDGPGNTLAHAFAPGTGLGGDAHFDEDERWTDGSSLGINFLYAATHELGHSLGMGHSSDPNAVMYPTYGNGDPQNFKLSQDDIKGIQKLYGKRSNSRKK

[1] = biological target: Matrix metalloproteinase-9 (Homo sapiens, UniProt P14780); test: Inhibition of human matrix metalloprotease 9
[2] = biological target: 72 kDa type IV collagenase (Homo sapiens, UniProt P08253); test: Inhibition of human matrix metalloprotease 2
Neutrophil collagenase = Neutrophil collagenase (Homo sapiens, UniProt P22894); test: Inhibition of human Matrix metalloprotease-8
Collagenase 3 = Collagenase 3 (Rattus norvegicus, UniProt P23097)
Description: Inhibition of rat matrix metalloprotease 13

Chain of Stromelysin-1 (P08254 whole entry): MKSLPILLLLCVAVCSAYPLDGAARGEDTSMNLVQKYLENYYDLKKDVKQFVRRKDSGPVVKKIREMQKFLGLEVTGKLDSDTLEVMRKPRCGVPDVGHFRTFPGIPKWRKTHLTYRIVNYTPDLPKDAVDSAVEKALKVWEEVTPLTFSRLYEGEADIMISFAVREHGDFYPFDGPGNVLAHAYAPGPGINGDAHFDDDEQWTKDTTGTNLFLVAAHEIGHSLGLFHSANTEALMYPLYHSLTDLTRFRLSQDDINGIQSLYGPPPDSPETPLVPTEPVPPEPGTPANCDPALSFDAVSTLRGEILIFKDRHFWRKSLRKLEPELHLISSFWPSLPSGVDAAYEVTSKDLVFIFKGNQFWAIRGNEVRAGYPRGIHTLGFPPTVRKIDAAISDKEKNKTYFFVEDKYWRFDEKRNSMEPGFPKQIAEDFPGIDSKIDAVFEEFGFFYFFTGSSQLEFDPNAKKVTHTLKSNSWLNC
Chain of Matrix metalloproteinase-9 (P14780 whole entry): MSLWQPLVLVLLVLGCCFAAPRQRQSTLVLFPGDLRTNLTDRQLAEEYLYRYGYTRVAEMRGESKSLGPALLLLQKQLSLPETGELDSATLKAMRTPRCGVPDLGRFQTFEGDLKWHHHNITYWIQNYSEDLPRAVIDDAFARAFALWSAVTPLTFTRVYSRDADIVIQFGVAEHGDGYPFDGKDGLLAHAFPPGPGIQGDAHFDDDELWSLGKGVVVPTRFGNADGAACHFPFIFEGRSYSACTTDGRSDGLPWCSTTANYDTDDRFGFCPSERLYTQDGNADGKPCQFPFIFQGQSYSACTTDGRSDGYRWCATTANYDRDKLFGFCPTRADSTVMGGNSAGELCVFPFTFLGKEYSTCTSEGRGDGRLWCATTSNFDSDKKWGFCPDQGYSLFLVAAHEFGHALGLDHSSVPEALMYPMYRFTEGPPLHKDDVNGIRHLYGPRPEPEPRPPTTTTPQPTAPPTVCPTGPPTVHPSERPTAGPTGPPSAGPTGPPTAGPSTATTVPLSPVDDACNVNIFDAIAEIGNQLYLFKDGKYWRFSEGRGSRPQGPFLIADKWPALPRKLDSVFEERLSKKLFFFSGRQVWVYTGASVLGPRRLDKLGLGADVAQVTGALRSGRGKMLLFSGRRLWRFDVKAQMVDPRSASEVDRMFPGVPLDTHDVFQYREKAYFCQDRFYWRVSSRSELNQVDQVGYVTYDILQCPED
Chain of 72 kDa type IV collagenase (P08253 whole entry): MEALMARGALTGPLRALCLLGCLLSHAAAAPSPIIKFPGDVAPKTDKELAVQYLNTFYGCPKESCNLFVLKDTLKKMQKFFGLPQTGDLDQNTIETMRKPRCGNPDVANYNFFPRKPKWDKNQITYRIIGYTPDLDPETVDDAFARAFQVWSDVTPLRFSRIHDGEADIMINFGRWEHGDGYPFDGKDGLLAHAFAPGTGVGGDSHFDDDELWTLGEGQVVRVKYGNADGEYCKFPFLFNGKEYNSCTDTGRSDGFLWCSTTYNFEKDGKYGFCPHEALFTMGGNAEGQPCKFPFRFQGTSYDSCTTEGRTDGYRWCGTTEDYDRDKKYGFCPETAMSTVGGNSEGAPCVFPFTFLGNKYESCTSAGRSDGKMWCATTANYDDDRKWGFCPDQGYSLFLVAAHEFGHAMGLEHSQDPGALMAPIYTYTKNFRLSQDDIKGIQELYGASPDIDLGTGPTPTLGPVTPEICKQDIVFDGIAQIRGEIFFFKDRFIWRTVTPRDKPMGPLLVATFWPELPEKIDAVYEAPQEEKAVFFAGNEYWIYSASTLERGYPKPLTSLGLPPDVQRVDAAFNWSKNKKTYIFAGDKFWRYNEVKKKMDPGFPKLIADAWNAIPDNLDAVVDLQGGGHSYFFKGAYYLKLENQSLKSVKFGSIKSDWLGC
Chain of Neutrophil collagenase (P22894 whole entry): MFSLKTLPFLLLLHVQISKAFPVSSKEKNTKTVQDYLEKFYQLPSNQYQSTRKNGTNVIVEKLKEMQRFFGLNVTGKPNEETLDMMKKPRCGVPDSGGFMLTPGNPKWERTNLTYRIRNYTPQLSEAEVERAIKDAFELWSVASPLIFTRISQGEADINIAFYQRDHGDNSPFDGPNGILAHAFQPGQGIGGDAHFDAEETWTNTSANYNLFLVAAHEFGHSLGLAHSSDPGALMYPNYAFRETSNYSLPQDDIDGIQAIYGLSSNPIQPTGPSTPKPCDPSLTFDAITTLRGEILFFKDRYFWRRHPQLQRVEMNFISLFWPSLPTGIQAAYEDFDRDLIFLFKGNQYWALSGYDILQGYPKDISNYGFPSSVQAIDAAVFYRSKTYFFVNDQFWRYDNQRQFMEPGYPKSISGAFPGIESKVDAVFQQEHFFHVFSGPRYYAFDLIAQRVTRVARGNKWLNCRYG

For `CC(C)C[C@H](C(=O)NO)N(Cc1ccccc1)[P@@](C)(=O)c1ccccc1`, the IC50 (Stromelysin-1) was 9170 nM and the IC50 (Interstitial collagenase) was 7120 nM.

With `O=C(CN(CCc1ccccc1)P(=O)(c1ccccc1)c1ccccc1)NO` the IC50 (Stromelysin-1) was 1750 nM and the IC50 (Interstitial collagenase) was 854 nM.

For `CC[P@@](=O)(c1ccccc1)N(Cc1ccccc1)[C@H](C)C(=O)NO`, the IC50 (Stromelysin-1) was 49300 nM and the IC50 (Interstitial collagenase) was 33300 nM.

Work on `CC(C)C[C@H](C(=O)NO)N(Cc1ccccc1)[P@](C)(=O)c1ccccc1` yielded an IC50 (Stromelysin-1) of 24.4 nM, an IC50 (Matrilysin) of 886 nM and an IC50 (Interstitial collagenase) of 20.5 nM. For the same molecule, the IC50 [1] was 20.6 nM, the IC50 [2] was 13.3 nM and the IC50 (Neutrophil collagenase) was 5.3 nM. It also gave an IC50 (Collagenase 3) of 7.4 nM.

Molecule `C[C@H](C(=O)NO)N(Cc1ccccc1)P(=O)(c1ccccc1)c1ccccc1` has an IC50 (Stromelysin-1) of 10300 nM and an IC50 (Interstitial collagenase) of 6790 nM.

Work on `CC(C)C[C@H](C(=O)NO)N(Cc1ccccc1)P(C)(C)=O` yielded an IC50 (Stromelysin-1) of 1040 nM and an IC50 (Interstitial collagenase) of 518 nM.

In the case of `C[P@@](=O)(c1ccccc1)N(CCc1ccccc1)CC(=O)NO`, the IC50 (Stromelysin-1) is reported as 700 nM and the IC50 (Interstitial collagenase) is reported as 525 nM.

In the case of `CC(C)C[C@@H](N[P@@](C)(=O)c1ccccc1)C(=O)NO`, the IC50 (Stromelysin-1) is reported as 130000 nM and the IC50 (Interstitial collagenase) is reported as > 100000 nM.

For `CCCCCCN([C@H](C)C(=O)NO)[P@](C)(=O)c1ccccc1`, the IC50 (Stromelysin-1) was 1600 nM and the IC50 (Interstitial collagenase) was 1290 nM.

Molecule `CC(C)C[C@@H](N[P@](C)(=O)c1ccccc1)C(=O)NO` has an IC50 (Stromelysin-1) of 2550 nM and an IC50 (Interstitial collagenase) of 2510 nM.

With `C[C@H](C(=O)NO)N(Cc1ccccc1)[P@](C)(=O)c1ccccc1` the IC50 (Stromelysin-1) was 67.9 nM, the IC50 (Matrilysin) was 1860 nM and the IC50 (Interstitial collagenase) was 120 nM. For the same molecule, the IC50 [1] was 32.5 nM.

Molecule `CCP(=O)(c1ccccc1)N(Cc1ccccc1)[C@H](C)C(=O)NO` (stereo partly specified) has an IC50 (Stromelysin-1) of 700 nM and an IC50 (Interstitial collagenase) of 608 nM.
